What follows are compounds tested against T1, CFTR (Homo sapiens, UniProt P13569) (assay: T84 assay (FLIPR membrane potential, forskolin/IBMX-stimulated CFTR channel activity)). Conditions: Human colonic T84 cells; average of at least 2 runs unless annotated n = 1.
T1 construct: host or cells: Human colonic T84 cells
Format: cell-based
Experimental: (§1) For example, Human colonic T84 cells can be acquired from the European Collection of Cell Cultures (ECACC) and grown in standard culture conditions as described by the supplier. On the day before assay 25,000 T84 cells per well are plated into standard black walled, clear bottom 384-well assay plates in standard growth medium consisting of DMEM:F12 with 10% FBS and incubated overnight. On the day of the assay the plates are washed using a standard assay buffer (HBSS with 10 mM Hepes) and incubated for 15 minutes in serum free cell culture medium before the addition of a commercially available membrane potential sensitive fluorescent dye (FLIPR Red membrane potential dye, Molecular Devices Corporation). T84 cells are incubated with the FLIPR Red membrane potential dye for 45 minutes in the presence and absence of test compound before being transferred to a commercially available fluorescence imaging plate reader (FLIPR384, Molecular Devices Corporation). Fluorescence levels are monitored continuously every second for 150 seconds; after an initial 10 second baseline, CFTR channel activity is stimulated through the addition of 10 μM forskolin in the presence of 100 μM of the phosphodiesterase inhibitor iso-butyl-methylxanthine (IBMX). Addition of the forskolin leads to the activation of intracellular adenylyl cylase 1, elevating cAMP levels and results in the phosphorylation and opening of CFTR anion channels. CFTR channel opening causes chloride ion efflux and subsequent depolarization of the cells, which is measured by an increase in fluorescence. CFTR inhibitor compounds prevent cell depolarization and the associated increase in fluorescence.
as §1, with “Human colonic” for “For example, Human colonic”, “T84 cells are acquired from” for “T84 cells can be acquired from”, “(ECACC) and are grown in” for “(ECACC) and grown in”

T1 sequence (P13569 whole entry): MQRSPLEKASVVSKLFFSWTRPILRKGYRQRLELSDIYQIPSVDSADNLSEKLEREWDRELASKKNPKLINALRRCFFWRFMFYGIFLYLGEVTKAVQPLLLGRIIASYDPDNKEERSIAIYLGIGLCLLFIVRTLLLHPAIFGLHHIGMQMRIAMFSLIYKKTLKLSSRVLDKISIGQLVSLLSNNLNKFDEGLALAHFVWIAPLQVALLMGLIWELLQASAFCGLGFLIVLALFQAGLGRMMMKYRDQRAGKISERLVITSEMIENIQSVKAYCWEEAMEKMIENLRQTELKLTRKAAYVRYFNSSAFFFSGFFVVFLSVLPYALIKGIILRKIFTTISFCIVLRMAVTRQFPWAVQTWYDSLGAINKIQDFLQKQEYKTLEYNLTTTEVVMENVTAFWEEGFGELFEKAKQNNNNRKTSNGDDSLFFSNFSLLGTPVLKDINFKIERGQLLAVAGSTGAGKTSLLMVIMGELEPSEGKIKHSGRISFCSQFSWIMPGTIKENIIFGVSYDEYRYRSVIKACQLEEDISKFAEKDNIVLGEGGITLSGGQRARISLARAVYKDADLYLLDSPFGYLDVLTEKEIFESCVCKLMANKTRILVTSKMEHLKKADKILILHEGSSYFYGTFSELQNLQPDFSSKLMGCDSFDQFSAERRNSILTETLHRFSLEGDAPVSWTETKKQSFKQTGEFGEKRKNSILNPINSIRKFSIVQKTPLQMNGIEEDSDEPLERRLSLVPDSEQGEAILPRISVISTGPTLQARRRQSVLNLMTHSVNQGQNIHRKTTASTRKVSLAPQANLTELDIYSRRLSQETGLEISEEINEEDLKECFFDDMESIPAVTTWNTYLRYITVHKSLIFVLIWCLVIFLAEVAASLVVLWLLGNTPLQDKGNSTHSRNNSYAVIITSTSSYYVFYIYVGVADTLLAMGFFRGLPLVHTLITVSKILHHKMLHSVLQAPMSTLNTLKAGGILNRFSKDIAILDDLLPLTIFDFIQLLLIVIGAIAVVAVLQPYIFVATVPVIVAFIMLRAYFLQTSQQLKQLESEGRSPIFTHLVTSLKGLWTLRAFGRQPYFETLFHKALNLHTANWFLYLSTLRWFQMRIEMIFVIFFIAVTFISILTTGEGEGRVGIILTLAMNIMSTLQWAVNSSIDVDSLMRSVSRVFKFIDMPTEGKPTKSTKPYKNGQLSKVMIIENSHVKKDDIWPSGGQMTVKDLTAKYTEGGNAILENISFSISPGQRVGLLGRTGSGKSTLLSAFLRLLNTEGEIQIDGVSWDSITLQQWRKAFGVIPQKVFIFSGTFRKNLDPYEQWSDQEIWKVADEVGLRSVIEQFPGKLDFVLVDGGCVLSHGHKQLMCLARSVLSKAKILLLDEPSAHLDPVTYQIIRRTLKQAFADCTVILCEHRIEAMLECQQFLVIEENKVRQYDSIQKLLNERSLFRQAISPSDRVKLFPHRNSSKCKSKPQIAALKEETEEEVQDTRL

Going from `Oc1c(Cl)cc(-c2cc(N3CCN(Cc4cccc(C(F)(F)F)c4)CC3)c(OCCc3ccc(Cl)cc3)nn2)cc1Cl` [Compound 1, 2,6-dichloro-4-(6-(4-chlorophenethoxy)-5-(4-(3-(trifluoromethyl)benzyl)piperazin-1-yl)pyridazin-3-yl)phenol] to `CN(C)CCCOc1cccc(CN2CCN(c3cc(-c4cc(Cl)c(O)c(Cl)c4)nnc3OCCc3ccc(Cl)cc3)CC2)c1` [Compound 16, 2,6-dichloro-4-(6-(4-chlorophenethoxy)-5-(4-(3-(3-(dimethylamino)propoxy)benzyl)piperazin-1-yl)pyridazin-3-yl)phenol], the IC50 falls from 27 µM to 9.85 µM (2.7-fold).

First: CN(C)CCCOc1ccc(CN2CCN(c3cc(-c4cc(Cl)c(O)c(Cl)c4)nnc3OCCc3ccc(Cl)cc3)CC2)cc1 [Compound 2, 2,6-Dichloro-4-(6-(4-chlorophenethoxy)-5-(4-(4-(3-(dimethylamino)propoxy)benzyl)piperazin-1-yl)pyridazin-3-yl)phenol]
Second: CN(C)CCOc1ccc(CN2CCN(c3cc(-c4cc(Cl)c(O)c(Cl)c4)nnc3OCCc3ccc(Cl)cc3)CC2)cc1 [Compound 15, 2,6-dichloro-4-(6-(4-chlorophenethoxy)-5-(4-(4-(2-(dimethylamino)ethoxy)benzyl)piperazin-1-yl)pyridazin-3-yl)phenol]
The IC50 of the first is 1.7-fold lower: 1.8 µM for the first, 3.05 µM for the second.

`O=C(Cc1ccccn1)N1CCN(c2cc(-c3cc(Cl)c(O)c(Cl)c3)nnc2OCCc2ccc(Cl)cc2)CC1` [Compound 3, 1-(4-(3-(4-Chlorophenethoxy)-6-(3,5-dichloro-4-hydroxyphenyl)pyridazin-4-yl)piperazin-1-yl)-2-(pyridin-2-yl)ethanone] and `CCN1CCN(c2cc(-c3cc(Cl)c(O)c(Cl)c3)nnc2OCCc2ccc(Cl)cc2)CC1` [Compound 5, 2,6-dichloro-4-(6-(4-chlorophenethoxy)-5-(4-ethylpiperazin-1-yl)pyridazin-3-yl)phenol] are within 1.5-fold of each other in IC50: 18.1 µM for the first, 15.8 µM for the second.

`CS(=O)(=O)Nc1ccc(CNC(=O)c2cc(-c3cc(Cl)c(O)c(Cl)c3)nnc2OCCc2ccc(Cl)cc2)cc1` [Compound 4, 3-(4-Chlorophenethoxy)-6-(3,5-dichloro-4-hydroxyphenyl)-N-(4-(methylsulfonamido)benzyl)pyridazine-4-carboxamide] and `O=C(NCc1ccc(C(F)(F)F)cc1)c1cc(-c2cc(Cl)c(O)c(Cl)c2)nnc1OCCc1ccc(Cl)cc1` [Compound 7, 3-(4-chlorophenethoxy)-6-(3,5-dichloro-4-hydroxyphenyl)-N-(4-(trifluoromethyl)benzyl)pyridazine-4-carboxamide] are within 1.5-fold of each other in IC50: 17.5 µM for the first, 16.5 µM for the second.

First: O=C(NCc1cccc(C(F)(F)F)c1)c1cc(-c2cc(Cl)c(O)c(Cl)c2)nnc1OCCc1ccc(Cl)cc1 [Compound 6, 3-(4-chlorophenethoxy)-6-(3,5-dichloro-4-hydroxyphenyl)-N-(3-(trifluoromethyl)benzyl)pyridazine-4-carboxamide]
Second: O=C(NCc1cc(F)cc(F)c1)c1cc(-c2cc(Cl)c(O)c(Cl)c2)nnc1OCCc1ccc(Cl)cc1 [Compound 8, 3-(4-chlorophenethoxy)-6-(3,5-dichloro-4-hydroxyphenyl)-N-(3,5-difluorobenzyl)pyridazine-4-carboxamide]
The IC50 of the first is 1.9-fold higher: 24.7 µM for the first, 13 µM for the second. The second is the more potent here.

Going from `O=C(NCc1cc(F)c(F)c(F)c1)c1cc(-c2cc(Cl)c(O)c(Cl)c2)nnc1OCCc1ccc(Cl)cc1` [Compound 9, 3-(4-chlorophenethoxy)-6-(3,5-dichloro-4-hydroxyphenyl)-N-(3,4,5-trifluorobenzyl)pyridazine-4-carboxamide] to `O=C(c1cc(-c2cc(Cl)c(O)c(Cl)c2)nnc1OCCc1ccc(Cl)cc1)N(CCO)Cc1ccc(F)cc1` [Compound 10, 3-(4-chlorophenethoxy)-6-(3,5-dichloro-4-hydroxyphenyl)-N-(4-fluorobenzyl)-N-(2-hydroxyethyl)pyridazine-4-carboxamide], the IC50 rises from 8.06 µM to 12.1 µM (1.5-fold). The first is the more potent here.

First: O=C(c1cc(-c2cc(Cl)c(O)c(Cl)c2)nnc1OCCc1ccc(Cl)cc1)N(CCO)Cc1ccccc1Cl [Compound 12, N-(2-chlorobenzyl)-3-(4-chlorophenethoxy)-6-(3,5-dichloro-4-hydroxyphenyl)-N-(2-hydroxyethyl)pyridazine-4-carboxamide]
Second: CCCN(CCO)C(=O)c1cc(-c2cc(Cl)c(O)c(Cl)c2)nnc1OCCc1ccc(Cl)cc1 [Compound 13, 3-(4-chlorophenethoxy)-6-(3,5-dichloro-4-hydroxyphenyl)-N-(2-hydroxyethyl)-N-propylpyridazine-4-carboxamide]
The IC50 of the first is 2.8-fold lower: 10.3 µM for the first, 28.6 µM for the second. The first is the more potent here.

`Oc1c(Cl)cc(-c2cc(N3CCN(Cc4ccc(OCCN5CCOCC5)cc4)CC3)c(OCCc3ccc(Cl)cc3)nn2)cc1Cl` [Compound 14, 2,6-dichloro-4-(6-(4-chlorophenethoxy)-5-(4-(4-(2-morpholinoethoxy)benzyl)piperazin-1-yl)pyridazin-3-yl)phenol] and `CN1CCN(CCOc2ccc(CN3CCN(c4cc(-c5cc(Cl)c(O)c(Cl)c5)nnc4OCCc4ccc(Cl)cc4)CC3)cc2)CC1` [Compound 22, 2,6-dichloro-4-(6-(4-chlorophenethoxy)-5-(4-(4-(2-(4-methylpiperazin-1-yl)ethoxy)benzyl)piperazin-1-yl)pyridazin-3-yl)phenol] are within 1.5-fold of each other in IC50: 9.45 µM for the first, 13.2 µM for the second.

Going from `CN(C)CCCOc1ccccc1CN1CCN(c2cc(-c3cc(Cl)c(O)c(Cl)c3)nnc2OCCc2ccc(Cl)cc2)CC1` [Compound 17, 2,6-dichloro-4-(6-(4-chlorophenethoxy)-5-(4-(2-(3-(dimethylamino)propoxy)benzyl)piperazin-1-yl)pyridazin-3-yl)phenol] to `Oc1c(Cl)cc(-c2cc(N3CCN(Cc4ccc(OCCCN5CCSCC5)cc4)CC3)c(OCCc3ccc(Cl)cc3)nn2)cc1Cl` [Compound 19, 2,6-dichloro-4-(6-(4-chlorophenethoxy)-5-(4-(4-(3-thiomorpholinopropoxy)benzyl)piperazin-1-yl)pyridazin-3-yl)phenol], the IC50 rises from 3.8 µM to 17 µM (4.5-fold). The first is the more potent here.

`Oc1c(Cl)cc(-c2cc(N3CCN(Cc4ccc(OCCCN5CCC(F)(F)CC5)cc4)CC3)c(OCCc3ccc(Cl)cc3)nn2)cc1Cl` [Compound 18, 2,6-dichloro-4-(6-(4-chlorophenethoxy)-5-(4-(4-(3-(4,4-difluoropiperidin-1-yl)propoxy)benzyl)piperazin-1-yl)pyridazin-3-yl)phenol] and `NC(=O)C1CCN(CCCOc2ccc(CN3CCN(c4cc(-c5cc(Cl)c(O)c(Cl)c5)nnc4OCCc4ccc(Cl)cc4)CC3)cc2)CC1` [Compound 21, 1-(3-(4-((4-(3-(4-chlorophenethoxy)-6-(3,5-dichloro-4-hydroxyphenyl)pyridazin-4-yl)piperazin-1-yl)methyl)phenoxy)propyl)piperidine-4-carboxamide] are within 1.5-fold of each other in IC50: 7.5 µM for the first, 7.33 µM for the second.

Compared with `CCN(Cc1ccccc1)C(=O)c1cc(-c2cc(Cl)c(O)c(Cl)c2)nnc1N(CC)Cc1ccccc1` [Compound 20, N-benzyl-3-(benzyl(ethyl)amino)-6-(3,5-dichloro-4-hydroxyphenyl)-N-ethylpyridazine-4-carboxamide], `COc1cc(CN2CCN(c3cc(-c4cc(Cl)c(O)c(Cl)c4)nnc3OCCc3ccc(Cl)cc3)CC2)ccc1OCCN1CCN(C)CC1` [Compound 23, 2,6-dichloro-4-(6-(4-chlorophenethoxy)-5-(4-(3-methoxy-4-(2-(4-methylpiperazin-1-yl)ethoxy)benzyl)piperazin-1-yl)pyridazin-3-yl)phenol] is 5.2-fold lower in IC50: 12 µM for the first, 2.33 µM for the second.
